Assay results published in ChEMBL document CHEMBL3792284, “Synthesis of triazoloquinazolinone based compounds as tubulin polymerization inhibitors and vascular disrupting agents” (Eur J Med Chem, 2016).

Key:
[1] = biological target: Tubulin (Bos taurus, UniProt Q6B856+Q862L2+Q862F3); assay: Inhibition of bovine tubulin polymerization after 1 hr by fluorescence spectrometry; type: protein assay
[2] = test system: HT-29; assay: Antiproliferative activity against human HT-29 cells at 10 uM after 72 hrs by MTS assay; type: functional; conditions: HT-29, 72 h
[3] = test system: HUVEC; assay: Inhibition of cell invasion of HUVEC at 1 uM after 24 hrs by crystal violet staining based Boyden chamber assay; type: functional; conditions: Homo sapiens
[4] = Growth inhibition of human HL-60(TB) cells after 48 hrs by sulforhodamine B assay; type: functional; conditions: HL-60, 48 h
[5] = test system: K562; assay: Growth inhibition of human K562 cells after 48 hrs by sulforhodamine B assay; type: functional; conditions: K562, 48 h
[6] = test system: SR; assay: Growth inhibition of human SR cells after 48 hrs by sulforhodamine B assay; type: functional
[7] = test system: A549; assay: Growth inhibition of human A549/ATCC cells after 48 hrs by sulforhodamine B assay; type: functional; conditions: A549, 48 h
[8] = Growth inhibition of human HOP62 cells after 48 hrs by sulforhodamine B assay; type: functional; conditions: HOP-62, 48 h
[9] = test system: NCI-H522; assay: Growth inhibition of human NCI-H522 cells after 48 hrs by sulforhodamine B assay; type: functional; conditions: NCI-H522, 48 h
[10] = Growth inhibition of human COLO205 cells after 48 hrs by sulforhodamine B assay; type: functional; conditions: COLO 205, 48 h
[11] = Growth inhibition of human HCT116 cells after 48 hrs by sulforhodamine B assay; type: functional; conditions: HCT-116, 48 h
[12] = Growth inhibition of human HCT15 cells after 48 hrs by sulforhodamine B assay; type: functional; conditions: HCT-15, 48 h
[13] = test system: HT-29; assay: Growth inhibition of human HT-29 cells after 48 hrs by sulforhodamine B assay; type: functional; conditions: HT-29, 48 h
[14] = Growth inhibition of human SF295 cells after 48 hrs by sulforhodamine B assay; type: functional; conditions: SF-295, 48 h
[15] = Growth inhibition of human SNB75 cells after 48 hrs by sulforhodamine B assay; type: functional; conditions: SNB-75, 48 h
[16] = test system: U-251; assay: Growth inhibition of human U251 cells after 48 hrs by sulforhodamine B assay; type: functional; conditions: U-251, 48 h
[17] = test system: SK-MEL-5; assay: Growth inhibition of human SK-MEL-5 cells after 48 hrs by sulforhodamine B assay; type: functional; conditions: SK-MEL-5, 48 h
[18] = Growth inhibition of human OVCAR3 cells after 48 hrs by sulforhodamine B assay; type: functional; conditions: OVCAR-3, 48 h
[19] = test system: A498; assay: Growth inhibition of human A498 cells after 48 hrs by sulforhodamine B assay; type: functional; conditions: A498, 48 h
[20] = Growth inhibition of human Caki1 cells after 48 hrs by sulforhodamine B assay; type: functional; conditions: CAKI-1, 48 h
[21] = Growth inhibition of human PC3 cells after 48 hrs by sulforhodamine B assay; type: functional; conditions: PC-3, 48 h
[22] = test system: MDA-MB-435; assay: Growth inhibition of human MDA-MB-435 cells after 72 hrs by MTT assay; type: functional; conditions: MDA-MB-435, 72 h
[23] = test system: MCF7; assay: Growth inhibition of human MCF7 cells after 3 days by MTT assay; type: functional; conditions: MCF7, 72 h
[24] = Growth inhibition of human HL-60(TB) cells at 10 uM after 48 hrs by sulforhodamine B assay; type: functional; conditions: HL-60, 48 h, read-out: GI
[25] = test system: K562; assay: Growth inhibition of human K562 cells at 10 uM after 48 hrs by sulforhodamine B assay; type: functional; conditions: K562, 48 h, read-out: GI
[26] = test system: SR; assay: Growth inhibition of human SR cells at 10 uM after 48 hrs by sulforhodamine B assay; type: functional; conditions: read-out: GI
[27] = test system: A549; assay: Growth inhibition of human A549/ATCC cells at 10 uM after 48 hrs by sulforhodamine B assay; type: functional; conditions: A549, 48 h, read-out: GI
[28] = Growth inhibition of human HOP62 cells at 10 uM after 48 hrs by sulforhodamine B assay; type: functional; conditions: HOP-62, 48 h, read-out: GI
[29] = test system: NCI-H522; assay: Growth inhibition of human NCI-H522 cells at 10 uM after 48 hrs by sulforhodamine B assay; type: functional; conditions: NCI-H522, 48 h, read-out: GI
[30] = Growth inhibition of human COLO205 cells at 10 uM after 48 hrs by sulforhodamine B assay; type: functional; conditions: COLO 205, 48 h, read-out: GI
[31] = Growth inhibition of human HCT116 cells at 10 uM after 48 hrs by sulforhodamine B assay; type: functional; conditions: HCT-116, 48 h, read-out: GI
[32] = Growth inhibition of human HCT15 cells at 10 uM after 48 hrs by sulforhodamine B assay; type: functional; conditions: HCT-15, 48 h, read-out: GI
[33] = test system: HT-29; assay: Growth inhibition of human HT-29 cells at 10 uM after 48 hrs by sulforhodamine B assay; type: functional; conditions: HT-29, 48 h, read-out: GI
[34] = Growth inhibition of human SF295 cells at 10 uM after 48 hrs by sulforhodamine B assay; type: functional; conditions: SF-295, 48 h, read-out: GI
[35] = Growth inhibition of human SNB75 cells at 10 uM after 48 hrs by sulforhodamine B assay; type: functional; conditions: SNB-75, 48 h, read-out: GI
[36] = test system: U-251; assay: Growth inhibition of human U251 cells at 10 uM after 48 hrs by sulforhodamine B assay; type: functional; conditions: U-251, 48 h, read-out: GI
[37] = test system: MDA-MB-435; assay: Growth inhibition of human MDA-MB-435 cells at 10 uM after 48 hrs by sulforhodamine B assay; type: functional; conditions: MDA-MB-435, 48 h, read-out: GI
[38] = test system: SK-MEL-5; assay: Growth inhibition of human SK-MEL-5 cells at 10 uM after 48 hrs by sulforhodamine B assay; type: functional; conditions: SK-MEL-5, 48 h, read-out: GI
[39] = Growth inhibition of human OVCAR3 cells at 10 uM after 48 hrs by sulforhodamine B assay; type: functional; conditions: OVCAR-3, 48 h, read-out: GI
[40] = Growth inhibition of human NCI-ADR-RES cells at 10 uM after 48 hrs by sulforhodamine B assay; type: functional; conditions: read-out: GI
[41] = test system: A498; assay: Growth inhibition of human A498 cells at 10 uM after 48 hrs by sulforhodamine B assay; type: functional; conditions: A498, 48 h, read-out: GI
[42] = Growth inhibition of human Caki1 cells at 10 uM after 48 hrs by sulforhodamine B assay; type: functional; conditions: CAKI-1, 48 h, read-out: GI
[43] = Growth inhibition of human PC3 cells at 10 uM after 48 hrs by sulforhodamine B assay; type: functional; conditions: PC-3, 48 h, read-out: GI
[44] = Growth inhibition of human DU145 cells at 10 uM after 48 hrs by sulforhodamine B assay; type: functional; conditions: DU-145, 48 h, read-out: GI
[45] = test system: MCF7; assay: Growth inhibition of human MCF7 cells at 10 uM after 48 hrs by sulforhodamine B assay; type: functional; conditions: MCF7, 48 h, read-out: GI
[46] = test system: MDA-MB-468; assay: Growth inhibition of human MDA-MB-468 cells at 10 uM after 48 hrs by sulforhodamine B assay; type: functional; conditions: MDA-MB-468, 48 h, read-out: GI
[47] = test system: MDA-MB-435; assay: Growth inhibition of human MDA-MB-435 cells after 48 hrs by sulforhodamine B assay; type: functional; conditions: MDA-MB-435, 48 h
[48] = Growth inhibition of human NCI-ADR-RES cells after 48 hrs by sulforhodamine B assay; type: functional
[49] = Growth inhibition of human DU145 cells after 48 hrs by sulforhodamine B assay; type: functional; conditions: DU-145, 48 h
[50] = test system: MCF7; assay: Growth inhibition of human MCF7 cells after 48 hrs by sulforhodamine B assay; type: functional; conditions: MCF7, 48 h
[51] = test system: MDA-MB-468; assay: Growth inhibition of human MDA-MB-468 cells after 48 hrs by sulforhodamine B assay; type: functional; conditions: MDA-MB-468, 48 h
[52] = Cytotoxicity against human HL-60(TB) cells assessed as cell growth at 10 uM after 48 hrs by sulforhodamine B assay; type: functional; conditions: HL-60, 48 h, read-out: Activity
[53] = test system: MDA-MB-435; assay: Cytotoxicity against human MDA-MB-435 cells assessed as cell growth at 10 uM after 48 hrs by sulforhodamine B assay; type: functional; conditions: MDA-MB-435, 48 h, read-out: Activity
[54] = Cytotoxicity against human COLO205 cells assessed as cell growth at 10 uM after 48 hrs by sulforhodamine B assay; type: functional; conditions: COLO 205, 48 h, read-out: Activity

COc1ccc(-c2nnc3[nH]c(=O)c4ccccc4n23)cc1OC
IC50 [1]: > 10000 nM | inhibition at 10 µM [2]: 0%

COc1ccc(-c2nnc3n(C)c(=O)c4ccccc4n23)cc1
IC50 [1]: > 10000 nM | inhibition at 10 µM [2]: 2%

COc1cc(-c2nnc3n(C)c(=O)c4ccccc4n23)ccc1O
IC50 [1]: > 10000 nM | inhibition at 10 µM [2]: 0%

COc1cc(-c2nnc3[nH]c(=O)c4ccccc4n23)ccc1O
IC50 [1]: > 10000 nM | inhibition at 10 µM [2]: 0%

COc1cc2c(Oc3ccc4[nH]c(C)cc4c3F)ncnc2cc1OCCCN1CCCC1 [CEDIRANIB]
inhibition at 1 µM [3]: 74%

Cn1c(=O)c2ccccc2n2c(-c3ccc(O)c(O)c3)nnc12
IC50 [1]: > 10000 nM | inhibition at 10 µM [2]: 0%

COc1ccc(-c2nnc3n(C)c(=O)c4ccccc4n23)cc1OC
IC50 [1]: > 10000 nM | inhibition at 10 µM [2]: 1%

COc1ccc(-c2nnc3[nH]c(=O)c4ccccc4n23)cc1O
IC50 [1]: 4260 nM | inhibition at 10 µM [2]: 10%

COc1ccc(/C=C\c2cc(OC)c(OC)c(OC)c2)cc1O [COMBRETASTATIN A4]
GI50 [4]: 2 nM | GI50 [5]: 2 nM | GI50 [6]: 3 nM | GI50 [7]: 16 nM | GI50 [8]: 2 nM | GI50 [9]: 2 nM | GI50 [10]: 221 nM | GI50 [11]: 3 nM | GI50 [12]: 4 nM | GI50 [13]: 118 nM | GI50 [14]: 4 nM | GI50 [15]: 8 nM | GI50 [16]: 4 nM | GI50 [17]: 3 nM | GI50 [18]: 2 nM | GI50 [19]: 6 nM | GI50 [20]: 25 nM | GI50 [21]: 1 nM | GI50 [22]: 3 nM | GI50 [23]: 18 nM

COc1cc(-c2nnc3[nH]c(=O)c4ccccc4n23)cc(OC)c1OC
IC50 [1]: > 10000 nM | inhibition at 10 µM [2]: 2%

COc1ccc(-c2nnc3n(C)c(=O)c4ccccc4n23)cc1N
IC50 [1]: > 10000 nM | inhibition at 10 µM [2]: 95% | inhibition of growth at 10 µM [24]: 100% | inhibition of growth at 10 µM [25]: 92% | inhibition of growth at 10 µM [26]: 89% | inhibition of growth at 10 µM [27]: 72% | inhibition of growth at 10 µM [28]: 83% | inhibition of growth at 10 µM [29]: 91% | inhibition of growth at 10 µM [30]: 100% | inhibition of growth at 10 µM [31]: 76% | inhibition of growth at 10 µM [32]: 78% | inhibition of growth at 10 µM [33]: 95% | inhibition of growth at 10 µM [34]: 98% | inhibition of growth at 10 µM [35]: 81% | inhibition of growth at 10 µM [36]: 81% | inhibition of growth at 10 µM [37]: 100% | inhibition of growth at 10 µM [38]: 86% | inhibition of growth at 10 µM [39]: 92% | inhibition of growth at 10 µM [40]: 83% | inhibition of growth at 10 µM [41]: 80% | inhibition of growth at 10 µM [42]: 65% | inhibition of growth at 10 µM [43]: 67% | inhibition of growth at 10 µM [44]: 79% | inhibition of growth at 10 µM [45]: 85% | inhibition of growth at 10 µM [46]: 89% | GI50 [5]: 39 nM | GI50 [6]: 34 nM | GI50 [7]: 1470 nM | GI50 [8]: 48 nM | GI50 [9]: 31 nM | GI50 [10]: 47 nM | GI50 [11]: 57 nM | GI50 [12]: 50 nM | GI50 [13]: 43 nM | GI50 [14]: 50 nM | GI50 [16]: 1630 nM | GI50 [47]: 23 nM | GI50 [17]: 60 nM | GI50 [18]: 47 nM | GI50 [48]: 65 nM | GI50 [19]: 2840 nM | GI50 [20]: 1950 nM | GI50 [21]: 2650 nM | GI50 [49]: 3090 nM | GI50 [50]: 43 nM | GI50 [51]: 2330 nM | growth at 10 µM [52]: 11% | growth at 10 µM [53]: 44% | growth at 10 µM [54]: 18%

COc1ccc(-c2nnc3[nH]c(=O)c4ccccc4n23)cc1
IC50 [1]: > 10000 nM | inhibition at 10 µM [2]: 0%

COc1cc(-c2nnc3n(C)c(=O)c4ccccc4n23)cc(OC)c1OC
IC50 [1]: > 10000 nM | inhibition at 10 µM [2]: 0%
